Results on three molecules are retold here after patent publication US20230151065A1, “MULTI-DISULFIDE-BOND LONG-CHAIN PEPTIDE WITH NEURO[…], PHARMACEUTICAL COMPOSITION AND APPLICATION” (priority 2018, published 2023).

In test [1] the test system is primary cultured hippocampal neurons damaged by NMDA. Nature of the test: NMDA damage of primary cultured hippocampal neurons, MTT viability. It is filed as cell-based, SD (Sprague-Dawley) rat. To be noted: for hippocampal neuron activity after NMDA damage (MTT): MK801 10 μM. From the text:
(1) Establishment of NMDA damage model. Primary culture of hippocampal neurons: SD (Sprague-Dawley) female rats pregnant for 18-19 days were anesthetized with a compound anaesthetic agent; fetal rat brains were taken under aseptic conditions and placed in HBSS solution (8.4 g/L of NaCl, 0.224 g/L of KCl, 2.38 g/L of HEPES, 500,000 units of penicillin sodium and 500,000 units of kanamycin sulfate; the pH was adjusted to 7.1-7.2 with 1M NaOH; then the osmotic pressure was adjusted to about 290±10 m Osm with ultrapure water; and after filtration, the solution was stored at 4° C.); the meninges were removed under a stereoscopic dissecting microscope; the bilateral hippocampus was removed and digested in 0.125% pancreatic protease at 37° C. for 10 min; and complete media (90% DMEM medium+10% FBS) (FBS: fetal bovine serum) was used to terminate the digestion; the bilateral hippocampus was washed for 3 times with the complete media to make a single cell suspension; the cell density was adjusted to about 7-8×10^5/ml; and the bilateral hippocampus was inoculated to a 6-well/96-well cell culture plate/60 mm culture dish/slide coated with L-polylysine. After 24 hours, the media were changed to serum-free neurobasal media (GIBCO) which were then placed in a 5% CO2, 37° C. incubator for culture; and half of the solution was changed every three days.
(2) NMDA damage treatment of hippocampal neurons: (1) The original media were sucked out and the cells were washed with magnesium-free extracellular fluid for three times, each for 5 minutes. (2) 10 mM NMDA (N-methyl-D-aspartic acid) and 10 mM Gly (glycine) were prepared with magnesium-free extracellular fluid, and NMDA was prepared to different concentrations with the magnesium-free extracellular fluid, wherein the final concentration of Gly was 10 μM. […] After damage, the cells were washed for three times with DMEM medium, each for 5 minutes. (3) The original culture media were re-added to continue for culturing for 24 hours.
(3) Detection of viability of hippocampal neurons after NMDA damage: (1) The hippocampal neurons were inoculated into a 96-well culture plate at 8×10^5 cells/ml, 0.1 ml per well, and cultured in a 5% CO2 incubator for 7-8 days. (2) After NMDA damage treatment and continuous culture for 24 hours, the culture solution was sucked off. (3) 100 μl of DMEM culture medium containing MTT (3-(4,5-dimethylthiazole-2)-2,5-diphenyltetrazolium bromide, 0.5 mg/ml) was added to each well, and the culture plate was put into 37° C., 5% CO2 incubator for culturing for 4 h. (4) 100 μl of 20% SDS was added to each well (20 g of sodium lauryl sulfate was dissolved in 50 ml of ddH2O+50 ml of N,N dimethylformamide) at 37° C. for 20 h. (5) The solution was shaken on a horizontal shaker for 5 min. (6) The optical density (OD) was measured at 570 nm (reference wavelength of 490 nm) on a microplate reader.
(6) Effect of ABPPk2 on decrease of hippocampal neuron activity caused by NMDA. Effect of different concentrations of ABPPk2 on hippocampal neuron damage caused by NMDA (100 μM, 30 min). The experiment was divided into 9 experimental groups: a normal group, NMDA (100 μM, 30 min) group (as a control group), ABPPk2 (0.01 μg/ml) group, ABPPk2 (0.1 μg/ml) group, ABPPk2 (0.3 μg/ml) group, ABPPk2 (1 μg/ml) group, ABPPk2 (3 μg/ml) group, ABPPk2 (10 μg/ml) group and MK801 (dizocilpine, 10 μM) group (as a positive control group). Three administration ways were adopted for ABPPk2: (1) ABPPk2 was administered 12 hours before and during the NMDA damage. (2) ABPPk2 was administered during NMDA damage. (3) ABPPk2 was administered during 24 hours of culture after NMDA damage.

In test [2] the test system is primary cultured SD fetal rat cortical neurons after OGD damage. Nature of the test: OGD damage of cortical neurons, Hoechst 33258 staining of apoptotic bodies. The test is classed as cell-based. To be noted: OGD 2 h, 24 h reoxygenation; ABPPk2 8, 40, 200 ng/ml, dose-dependent; BDNF 10 ng/ml. The procedure:
The suspension was filtered with a 400-mesh screen, centrifuged at 1000 rpm for 5 min, and blown to form the single cell suspension. DMEM high glucose complete medium (containing 10% fetal bovine serum) was inoculated in a culture dish or culture plate pre-coated with polylysine (PLL) to culture in 5% CO2 incubator with saturated humidity at 37° C. After the cells were cultured for 4 h to adhere to the wall, the cells were cultured with neuron culture medium (neurobasal+2% B27) for 3 d to observe the growth of neurons. The culture medium containing cytarabine (the final concentration of cytarabine was 2.5 μg/ml) was substituted with half quantity to culture for 3d to inhibit the growth of glial cells and miscellaneous cells to obtain purely cultured primary cortical nerve cells. The purity of the cortical neurons was identified by immunocytochemical staining as more than 90%.
After the cortical neurons were cultured to the 7th day, the original culture medium was sucked out, and the cells were rinsed twice with sugar-free DMEM basal medium, for 5 min each time. Each OGD damage group was added with DMEM sugar-free culture medium, placed in a Billups-Rothenberg anaerobic culture chamber, filled with 95% N2/5% CO2 to balance for 15 min, and sealed for 2 h to build an OGD model. […]

Turning to `C[C@]12N[C@H](Cc3ccccc31)c1ccccc12` [MK801, dizocilpine, reference compound], the “hippocampal neuron activity after NMDA damage (MTT)” value in test [1] (given 12 h before and during NMDA (100 μM, 0.5 h), ABPPk2 0.1, 0.3 and 1 μg/ml groups) is “can effectively reduce the decrease of hippocampal neuron activity caused by NMDA damage”; in test [1] (given during 24 h culture after NMDA damage (100 μM, 0.5 h), ABPPk2 0.1-10 μg/ml) it was “can effectively reduce the decrease of hippocampal neuron activity caused by NMDA damage”; in test [1] (given during NMDA damage (100 μM, 0.5 h), ABPPk2 1 and 10 μg/ml groups), “can effectively reduce the decrease of hippocampal neuron activity caused by NMDA damage”. In the case of “CLETSGSCIPGAQHNCCSGVCVPLVTLFYGVCY (Achyranthes bidentata Blume) [SEQ ID No: 3]”, the “protective effect on NMDA damage of primary hippocampal neurons” value in test [1] (overall statement, experimental solution of embodiment 6, concentration and administration way not stated) is given as “can effectively reduce the decrease of hippocampal neuron activity caused by NMDA damage”.

B1: BDNF: positive control group, final concentration of 10 ng/ml (protein, UniProt P23560 19-247, looked up)
Neurotrophic factor BDNF …: APMKEANIRGQGGLAYPGVRTHGTLESVNGPKAGSRGLTSLADTFEHVIEELLDEDQKVRPNEENNKDADLYTSRVMLSSQVPLEPPLLFLLEEYKNYLDAANMSMRVRRHSDPARRGELSVCDSISEWVTAADKKTAVDMSGGTVTVLEKVPVSKGQLKQYFYETKCNPMGYTKEGCRGIDKRHWNSQCRTTQSYVRALTMDSKKRIGWRFIRIDTSCVCTLTIKRGR
In the case of B1, in test [2], the “apoptotic bodies of cortical neuron nuclei” value is listed as “the apoptotic bodies are reduced”.
